Where a name gives a salt, the structure may show the parent alone.
What was measured:
[1] = system: ZR-75-1 Tam1; assay: drug sensitivity score (DSS) (DSS (dimensionless)); higher = more sensitive; extreme values may be limits of the assay; conditions: 4-OH-tamoxifen in medium 1 µM; 72 h
Summary of the method: (§1)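 Breast cancer cell lines and their resistant derivatives were seeded into 384-well plates holding FO2Baq library drugs at five concentrations spanning a 10 000-fold range. Resistant lines were in medium with 1 μM of the selecting drug. Cells were incubated 72 h at 37 °C, and CellTiter-Glo viability was read on a PHERAstar and normalised to vehicle-only and positive controls. Drug sensitivity score, relative IC50 (curve midpoint) and top-dose inhibition came from logistic dose–response fits (Breeze pipeline).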

[2] = system: ZR-75-1 Tam2; assay: as above; conditions: 4-OH-tamoxifen in medium 1 µM; 72 h
Summary of the method: as §1

[3] = system: MCF-7 Tam1; assay: as above; conditions: 4-OH-tamoxifen in medium 1 µM; 72 h
Summary of the method: as §1

[4] = system: T-47D; assay: as above; conditions: 72 h
Summary of the method: as §1

[5] = system: ZR-75-1; assay: as above; conditions: 72 h
Summary of the method: as §1

[6] = system: BT-474 Tam1; assay: as above; conditions: 4-OH-tamoxifen in medium 1 µM; 72 h
Summary of the method: as §1

[7] = system: BT-474; assay: as above; conditions: 72 h
Summary of the method: as §1

[8] = system: MCF-7; assay: as above; conditions: 72 h
Summary of the method: as §1

[9] = system: BT-474 Tam2; assay: as above; conditions: 4-OH-tamoxifen in medium 1 µM; 72 h
Summary of the method: as §1

[10] = system: T-47D Tam1; assay: as above; conditions: 4-OH-tamoxifen in medium 1 µM; 72 h
Summary of the method: as §1

[11] = system: T-47D Tam2; assay: as above; conditions: 4-OH-tamoxifen in medium 1 µM; 72 h
Summary of the method: as §1

[12] = system: ZR-75-1 Tam1; assay: relative IC50 (midpoint of fitted logistic curve, plateau may be below 50% inhibition; CellTiter-Glo viability); higher = less potent; conditions: 4-OH-tamoxifen in medium 1 µM; 72 h
Summary of the method: as §1

[13] = system: ZR-75-1 Tam2; assay: as above; conditions: 4-OH-tamoxifen in medium 1 µM; 72 h
Summary of the method: as §1

[14] = system: MCF-7 Tam1; assay: as above; conditions: 4-OH-tamoxifen in medium 1 µM; 72 h
Summary of the method: as §1

[15] = system: T-47D; assay: as above; conditions: 72 h
Summary of the method: as §1

[16] = system: ZR-75-1; assay: as above; conditions: 72 h
Summary of the method: as §1

[17] = system: BT-474 Tam1; assay: as above; conditions: 4-OH-tamoxifen in medium 1 µM; 72 h
Summary of the method: as §1

[18] = system: BT-474; assay: as above; conditions: 72 h
Summary of the method: as §1

[19] = system: MCF-7; assay: as above; conditions: 72 h
Summary of the method: as §1

[20] = system: BT-474 Tam2; assay: as above; conditions: 4-OH-tamoxifen in medium 1 µM; 72 h
Summary of the method: as §1

[21] = system: T-47D Tam1; assay: as above; conditions: 4-OH-tamoxifen in medium 1 µM; 72 h
Summary of the method: as §1

[22] = system: T-47D Tam2; assay: as above; conditions: 4-OH-tamoxifen in medium 1 µM; 72 h
Summary of the method: as §1

Structure (SMILES) | drug sensitivity score [1] | drug sensitivity score [2] | drug sensitivity score [3] | drug sensitivity score ([4]; 4-OH-tamoxifen in medium 0 µM) | drug sensitivity score ([4]; 4-OH-tamoxifen in medium 1 µM) | drug sensitivity score ([5]; 4-OH-tamoxifen in medium 0 µM) | drug sensitivity score ([5]; 4-OH-tamoxifen in medium 1 µM) | drug sensitivity score [6] | drug sensitivity score ([7]; 4-OH-tamoxifen in medium 0 µM) | drug sensitivity score ([7]; 4-OH-tamoxifen in medium 1 µM) | drug sensitivity score ([8]; 4-OH-tamoxifen in medium 0 µM) | drug sensitivity score ([8]; 4-OH-tamoxifen in medium 1 µM) | drug sensitivity score [9] | drug sensitivity score [10] | drug sensitivity score [11] | relative IC50 [12] [nM] | relative IC50 [13] [nM] | relative IC50 [14] [nM] | relative IC50 ([15]; 4-OH-tamoxifen in medium 0 µM) [nM] | relative IC50 ([15]; 4-OH-tamoxifen in medium 1 µM) [nM] | relative IC50 ([16]; 4-OH-tamoxifen in medium 0 µM) [nM] | relative IC50 ([16]; 4-OH-tamoxifen in medium 1 µM) [nM] | relative IC50 [17] [nM] | relative IC50 ([18]; 4-OH-tamoxifen in medium 0 µM) [nM] | relative IC50 ([18]; 4-OH-tamoxifen in medium 1 µM) [nM] | relative IC50 ([19]; 4-OH-tamoxifen in medium 0 µM) [nM] | relative IC50 ([19]; 4-OH-tamoxifen in medium 1 µM) [nM] | relative IC50 [20] [nM] | relative IC50 [21] [nM] | relative IC50 [22] [nM]
COc1cccc2cc(-c3nc([C@H]4CC[C@H](C(=O)O)CC4)n4ncnc(N)c34)[nH]c12 [OSI-027] | 9.81 | 12.5 | 2.71 | 11.9 | 5.99 | 11 | 11 | 7.62 | 5.02 | 6.48 | 4.23 | 4.31 | 5.03 | 15.8 | 8.2 | 219 | 198 | 713 | 246 | 543 | 263 | 132 | 203 | 333 | 697 | 1420 | 1160 | 338 | 134 | 131
COC(=O)C[C@](O)(CCCC(C)(C)O)C(=O)O[C@@H]1C(OC)=C[C@]23CCCN2CCc2cc4c(cc2[C@H]13)OCO4 [Omacetaxine (Homoharringtonine)] | 13.8 | 17.8 | 16.2 | 17.4 | 11 | 19 | 15.2 | 4.82 | 6.72 | 6.25 | 25.1 | 26.1 | 6.34 | 16.4 | 10.7 | 84.4 | 92.2 | 82.2 | 138 | 172 | 37.2 | 46.5 | 2990 | – | 1890 | 29 | 16.7 | 1780 | 93.7 | 419
O=C(O)C(=O)O.[NH-][C@@H]1CCCC[C@H]1[NH-].[Pt+2] [Oxaliplatin] | 0 | 0 | 0 | 0 | 0 | 0 | 0 | 0 | 0 | 0 | 0 | 0 | 0 | 0 | 0 | > 10000 | > 10000 | > 10000 | > 10000 | > 10000 | > 10000 | > 10000 | > 10000 | > 10000 | > 10000 | > 10000 | > 10000 | > 10000 | > 10000 | > 10000
O=C(Nc1cccnc1)N1CCC(Cc2cccc(Oc3ccc(C(F)(F)F)cn3)c2)CC1 [PF-3845] | 18.7 | 18.8 | 9.98 | 11.6 | 10.7 | 10.2 | 19.7 | 23.7 | 18.1 | 21.2 | 16.5 | 19.2 | 20.4 | 17.5 | 13.7 | 218 | 233 | 1970 | 278 | 3620 | 725 | 179 | 102 | 245 | 157 | 161 | 140 | 187 | 295 | 429
Cc1ccc([N+](=O)[O-])cc1S(=O)(=O)N(C)/N=C/c1cnc2ccc(Br)cn12 [PIK-75 (HCl)] | 14.9 | 18.9 | 22.6 | 21.8 | 15.3 | 16.9 | 16.7 | 29.8 | 21.2 | 27.2 | 22.3 | 26.4 | 26.8 | 25.1 | 20.5 | 309 | 108 | 50.5 | 33.2 | 81.3 | 133 | 94.5 | 31.6 | 148 | 48.6 | 33.2 | 30.5 | 58.7 | 48.3 | 82.6
Nc1nc2[nH]cc(CCc3ccc(C(=O)N[C@@H](CCC(=O)O)C(=O)O)cc3)c2c(=O)[nH]1 [Pemetrexed] | 0 | 0 | 0 | 0 | 0 | 0 | 0 | 0 | 0 | 0 | 0 | 0.305 | 0 | 0 | 0 | > 10000 | > 10000 | > 10000 | > 10000 | – | > 10000 | > 10000 | > 10000 | > 10000 | > 10000 | > 10000 | – | > 10000 | > 10000 | > 10000
CS(=O)(=O)N1CCN(Cc2cc3nc(-c4cccc5[nH]ncc45)nc(N4CCOCC4)c3s2)CC1 [Pictilisib (GDC-0941)] | 11.3 | 12.1 | 8.69 | 9.41 | 9.59 | 12.7 | 9.23 | 17.4 | 10.2 | 16.4 | 15.4 | 12.8 | 17.2 | 14.7 | 9.95 | 514 | 415 | 582 | 713 | 884 | 208 | 453 | 202 | 359 | 283 | 201 | 419 | 182 | 148 | 472
O=C(CCBr)N1CCN(C(=O)CCBr)CC1 [Pipobroman] | 0 | 0 | 0 | 0 | 0 | 0 | 0 | 0 | 0 | 0 | 0 | 0 | 0 | 0 | 0 | > 10000 | > 10000 | > 10000 | > 10000 | > 10000 | > 10000 | > 10000 | > 10000 | > 10000 | > 10000 | > 10000 | > 10000 | > 10000 | > 10000 | > 10000
c1cc(CN2CCCNCCNCCCNCC2)ccc1CN1CCCNCCNCCCNCC1 [Plerixafor] | 0 | 0 | 0 | 0.403 | 0 | 0 | 0 | 0 | 0 | 0 | 0 | 0 | 0 | 0 | 0 | > 2500 | > 2500 | > 2500 | > 2500 | > 2500 | > 2500 | > 2500 | > 2500 | > 2500 | > 2500 | > 2500 | > 2500 | > 2500 | > 2500 | > 2500
CO[C@H](C(=O)[C@@H](O)[C@@H](C)O)[C@@H]1Cc2cc3cc(O[C@H]4C[C@@H](O[C@@H]5C[C@@H](O)[C@H](O)[C@@H](C)O5)[C@H](O)[C@@H](C)O4)c(C)c(O)c3c(O)c2C(=O)[C@H]1O[C@H]1C[C@@H](O[C@@H]2C[C@@H](O)[C@@H](O[C@@H]3C[C@](C)(O)[C@H](O)[C@@H](C)O3)[C@@H](C)O2)[C@H](O)[C@@H](C)O1 [Plicamycin  (Mithramycin A)] | 22.1 | 23.6 | 14.1 | 18.4 | 13.2 | 21.5 | 19 | 13.7 | 11.9 | 14.3 | 14.9 | 20.1 | 14.9 | 22 | 17.4 | 58.6 | 64.5 | 318 | 84.6 | 110 | 45.3 | 66.5 | 632 | 357 | 542 | 401 | 150 | 495 | 36.3 | 57
C[C@]12C=CC(=O)C=C1CC[C@@H]1[C@@H]2C(=O)C[C@@]2(C)[C@H]1CC[C@]2(O)C(=O)CO [Prednisone] | 0 | 0 | 0 | 0 | 0 | 0 | 0 | 0 | 0 | 0 | 0 | 0 | 0 | 0 | 0 | > 10000 | > 10000 | > 10000 | > 10000 | > 10000 | > 10000 | > 10000 | > 10000 | > 10000 | > 10000 | > 10000 | > 10000 | > 10000 | > 10000 | > 10000
CNNCc1ccc(C(=O)NC(C)C)cc1 [Procarbazine] | 0 | 0 | 0 | 0 | 0 | 0 | 0 | 0 | 0 | 0 | 0 | 0 | 0 | 0 | 0 | > 10000 | > 10000 | > 10000 | > 10000 | > 10000 | > 10000 | > 10000 | > 10000 | > 10000 | > 10000 | > 10000 | > 10000 | > 10000 | > 10000 | > 10000
CC(C)(C)c1cnc(CSc2cnc(NC(=O)C3CCNCC3)s2)o1 [SNS-032] | 9.78 | 11.1 | 2.67 | 7.36 | 1.24 | 12.3 | 9.55 | 23.8 | 0.78 | 15.8 | 20 | 11.8 | 14.4 | 8.4 | 4.33 | 308 | 297 | 1200 | 451 | – | 243 | 315 | 82.9 | – | 83.7 | 38.2 | 134 | 420 | 362 | 600
COc1cc2c(N3CCN(C(=O)Nc4ccc(OC(C)C)cc4)CC3)ncnc2cc1OCCCN1CCCCC1 [Tandutinib] | 0 | 0 | 0 | 0 | 0 | 0 | 0 | 0 | 0 | 0 | 0 | 0 | 0 | 0 | 0 | > 1000 | > 1000 | > 1000 | > 1000 | > 1000 | > 1000 | > 1000 | > 1000 | > 1000 | > 1000 | > 1000 | > 1000 | > 1000 | > 1000 | > 1000

From the supplement of paper PMC4932681
